Source: patent US7244431B2, “Allergy vaccines and their preparation” (priority 2000, dated 2007)

Tests used:
[1] = tested on: IgE antibodies in sera from birch pollen allergic patients; experiment: ELISA detection of peptide- and rBet v 1-specific IgE antibodies; format: binding, human
Procedure: Birch pollen allergic patients suffering from allergic rhinoconjunctivitis and/or asthma to birch pollen and related allergens were selected according to case history indicative for seasonal birch pollinosis and characterized by skin prick testing with birch pollen extract and serological CAP RAST (Pharmacia Diagnostics, Uppsala, Sweden) testing. Total IgE levels in the sera were determined by CAP RIST measurements (Pharmacia). […] Sera from 60 birch pollen allergic patients and a non-atopic individual were used for IgE competition studies. The birch pollen allergic patients group consisted of 25 males and 35 females with a mean age of 37 years (ranging from 19-60 years) (Table 2).
Subsequently, plates were incubated with 1:3 diluted sera from 60 birch pollen allergic patients and from a non-atopic individual overnight at 4° C. Bound IgE antibodies were detected with a 1:1000 diluted alkaline-phosphatase-coupled mouse monoclonal anti-human IgE antibody (Pharmingen, San Diego, Calif.).

[2] = tested on: birch pollen allergic patients; experiment: Skin prick testing of allergic patients; format: in vivo, human; settings: 100 μg/ml
Procedure: SPTs were performed on the individuals forearms as described ([…]. et al. (1997) J. Clin Invest. 99, 1673-168; Dreborg S: (1989) J. Am. Acad. DerMatol. 21, 820-821). […] In addition standardized skin prick solutions (birch pollen extract and histamine) (Allergopharma, Reinbek, Germany) were tested. Reactions were recorded 20 minutes after SPT by photography and by transferring the ballpoint pen-surrounded wheal area with a scotch tape to paper.

Question: What does the source list for “DGGSILKISNKYHTKGDHEVKAEQVKASKEC [Peptide P4, Bet v 1-derived synthetic peptide, position aa 110-139, one cysteine added]”?
Answer: IgE (OD) ([1]; serum of NHS, non-allergic control individual): — (Dashes indicate reactivities below the cut-off level (OD=0.050)); IgE (OD) ([1]; serum of patient 1): — (Dashes indicate reactivities below the cut-off level (OD=0.050)); IgE (OD) ([1]; serum of patient 2): — (Dashes indicate reactivities below the cut-off level (OD=0.050)); IgE (OD) ([1]; serum of patient 3): — (Dashes indicate reactivities below the cut-off level (OD=0.050)); IgE (OD) ([1]; serum of patient 4): — (Dashes indicate reactivities below the cut-off level (OD=0.050)); IgE (OD) ([1]; serum of patient 5): — (Dashes indicate reactivities below the cut-off level (OD=0.050)); IgE (OD) ([1]; serum of patient 6): — (Dashes indicate reactivities below the cut-off level (OD=0.050)); IgE (OD) ([1]; serum of patient 7): — (Dashes indicate reactivities below the cut-off level (OD=0.050)); IgE (OD) ([1]; serum of patient 8): — (Dashes indicate reactivities below the cut-off level (OD=0.050)); IgE (OD) ([1]; serum of patient 9): — (Dashes indicate reactivities below the cut-off level (OD=0.050)); IgE (OD) ([1]; serum of patient 10): — (Dashes indicate reactivities below the cut-off level (OD=0.050)); IgE (OD) ([1]; serum of patient 11): — (Dashes indicate reactivities below the cut-off level (OD=0.050)); IgE (OD) ([1]; serum of patient 12): — (Dashes indicate reactivities below the cut-off level (OD=0.050)); IgE (OD) ([1]; serum of patient 13): — (Dashes indicate reactivities below the cut-off level (OD=0.050)); IgE (OD) ([1]; serum of patient 14): — (Dashes indicate reactivities below the cut-off level (OD=0.050)); IgE (OD) ([1]; serum of patient 15): — (Dashes indicate reactivities below the cut-off level (OD=0.050)); IgE (OD) ([1]; serum of patient 16): — (Dashes indicate reactivities below the cut-off level (OD=0.050)); IgE (OD) ([1]; serum of patient 17): — (Dashes indicate reactivities below the cut-off level (OD=0.050)); IgE (OD) ([1]; serum of patient 18): — (Dashes indicate reactivities below the cut-off level (OD=0.050)); IgE (OD) ([1]; serum of patient 19): — (Dashes indicate reactivities below the cut-off level (OD=0.050)); IgE (OD) ([1]; serum of patient 20): — (Dashes indicate reactivities below the cut-off level (OD=0.050)); IgE (OD) ([1]; serum of patient 21): — (Dashes indicate reactivities below the cut-off level (OD=0.050)); IgE (OD) ([1]; serum of patient 22): — (Dashes indicate reactivities below the cut-off level (OD=0.050)); IgE (OD) ([1]; serum of patient 23): — (Dashes indicate reactivities below the cut-off level (OD=0.050)); IgE (OD) ([1]; serum of patient 24): — (Dashes indicate reactivities below the cut-off level (OD=0.050)); IgE (OD) ([1]; serum of patient 25): — (Dashes indicate reactivities below the cut-off level (OD=0.050)); IgE (OD) ([1]; serum of patient 26): — (Dashes indicate reactivities below the cut-off level (OD=0.050)); IgE (OD) ([1]; serum of patient 27): — (Dashes indicate reactivities below the cut-off level (OD=0.050)); IgE (OD) ([1]; serum of patient 28): — (Dashes indicate reactivities below the cut-off level (OD=0.050)); IgE (OD) ([1]; serum of patient 29): — (Dashes indicate reactivities below the cut-off level (OD=0.050)); IgE (OD) ([1]; serum of patient 30): — (Dashes indicate reactivities below the cut-off level (OD=0.050)); IgE (OD) ([1]; serum of patient 31): — (Dashes indicate reactivities below the cut-off level (OD=0.050)); IgE (OD) ([1]; serum of patient 32): — (Dashes indicate reactivities below the cut-off level (OD=0.050)); IgE (OD) ([1]; serum of patient 33): — (Dashes indicate reactivities below the cut-off level (OD=0.050)); IgE (OD) ([1]; serum of patient 34): — (Dashes indicate reactivities below the cut-off level (OD=0.050)); IgE (OD) ([1]; serum of patient 35): — (Dashes indicate reactivities below the cut-off level (OD=0.050)); IgE (OD) ([1]; serum of patient 36): — (Dashes indicate reactivities below the cut-off level (OD=0.050)); IgE (OD) ([1]; serum of patient 37): — (Dashes indicate reactivities below the cut-off level (OD=0.050)); IgE (OD) ([1]; serum of patient 38): — (Dashes indicate reactivities below the cut-off level (OD=0.050)); IgE (OD) ([1]; serum of patient 39): — (Dashes indicate reactivities below the cut-off level (OD=0.050)); IgE (OD) ([1]; serum of patient 40): — (Dashes indicate reactivities below the cut-off level (OD=0.050)); IgE (OD) ([1]; serum of patient 41): — (Dashes indicate reactivities below the cut-off level (OD=0.050)); IgE (OD) ([1]; serum of patient 42): — (Dashes indicate reactivities below the cut-off level (OD=0.050)); IgE (OD) ([1]; serum of patient 43): — (Dashes indicate reactivities below the cut-off level (OD=0.050)); IgE (OD) ([1]; serum of patient 44): — (Dashes indicate reactivities below the cut-off level (OD=0.050)); IgE (OD) ([1]; serum of patient 45): — (Dashes indicate reactivities below the cut-off level (OD=0.050)); IgE (OD) ([1]; serum of patient 46): — (Dashes indicate reactivities below the cut-off level (OD=0.050)); IgE (OD) ([1]; serum of patient 47): — (Dashes indicate reactivities below the cut-off level (OD=0.050)); IgE (OD) ([1]; serum of patient 48): — (Dashes indicate reactivities below the cut-off level (OD=0.050)); IgE (OD) ([1]; serum of patient 49): — (Dashes indicate reactivities below the cut-off level (OD=0.050)); IgE (OD) ([1]; serum of patient 50): — (Dashes indicate reactivities below the cut-off level (OD=0.050)); IgE (OD) ([1]; serum of patient 51): — (Dashes indicate reactivities below the cut-off level (OD=0.050)); IgE (OD) ([1]; serum of patient 52): — (Dashes indicate reactivities below the cut-off level (OD=0.050)); IgE (OD) ([1]; serum of patient 53): — (Dashes indicate reactivities below the cut-off level (OD=0.050)); IgE (OD) ([1]; serum of patient 54): — (Dashes indicate reactivities below the cut-off level (OD=0.050)); IgE (OD) ([1]; serum of patient 55): — (Dashes indicate reactivities below the cut-off level (OD=0.050)); IgE (OD) ([1]; serum of patient 56): — (Dashes indicate reactivities below the cut-off level (OD=0.050)); IgE (OD) ([1]; serum of patient 57): — (Dashes indicate reactivities below the cut-off level (OD=0.050)); IgE (OD) ([1]; serum of patient 58): — (Dashes indicate reactivities below the cut-off level (OD=0.050)); IgE (OD) ([1]; serum of patient 59): — (Dashes indicate reactivities below the cut-off level (OD=0.050)); IgE (OD) ([1]; serum of patient 60): — (Dashes indicate reactivities below the cut-off level (OD=0.050)); mean wheal diameter ([2]; individual 1): 0 mm; mean wheal diameter ([2]; individual 2): 0 mm; mean wheal diameter ([2]; individual 3): 0 mm; mean wheal diameter ([2]; individual 4): 0 mm; mean wheal diameter ([2]; individual 5): 0 mm; mean wheal diameter ([2]; individual 6 (allergic, without birch pollen allergy)): 0 mm
